For series [1], the system named is HSC-2 (human squamous carcinoma, derived from tongue). Briefly: MTT cytotoxicity assay, HSC-2. It is filed as cell-based. The conditions noted are these: HSC-2, 48 h, read-out: CC50 HSC-2. (In general: Formazan colour is commonly taken as a measure of viable cells.)
Protocol: (§1) The cancer cell lines (HSC-2, HSC-3, HSC-4), as well as the normal cells (HGF, HPLF, and HPC), were cultured at 37°C in a humidified 5% CO2 incubator in DMEM medium enriched with streptomycin sulphate (100 μg/mL), 10% heat-inactivated FBS, and penicillin G (100 units/mL). For cytotoxicity testing, cells were then garnered using 0.25% trypsin–0.025% sodium edetate in a phosphate-buffered saline lacking Ca^2+/Mg^2+ [PBS (−)]. The cells were cultured in 96-well microplates at a cell count of 3 ×10^3 cells/100 μL. After 2 days, the exhausted medium was replaced with fresh medium containing the different concentrations of sample to be tested, in triplicate. The initial sample concentration was set at 5 mg/mL in DMSO. The first concentration examined was thus 500 μg/mL, which was then successively diluted 2-fold. In the wells assigned for control, equal volumes of the DMSO were added to the cells, where the toxic effects of DMSO could be subtracted. The cell growth in the incubator was continued for another 2 days. To determine the cell viability, the colorimetric MTT method was employed as described in our preceding article ([Orabi et al., 2021]). The concentration of cytotoxicity 50% (CC50) was determined from the dose-response curve. The mean CC50 value for each type of cell was calculated from triplicate assays ([Kantoh et al., 2010]).
For series [2], the system named is HSC-3 (human squamous carcinoma, derived from tongue). Briefly: MTT cytotoxicity assay, HSC-3. It is filed as cell-based. The conditions noted are these: HSC-3, 48 h, read-out: CC50 HSC-3.
Protocol: as §1
In series [3] the test system is HSC-4 (human squamous carcinoma, derived from tongue). Briefly: MTT cytotoxicity assay, HSC-4. It is filed as cell-based. The conditions noted are these: HSC-4, 48 h, read-out: CC50 HSC-4.
Protocol: as §1
A short description of series [4]: MTT cytotoxicity assay, HGF. The conditions noted are these: human, normal gingival fibroblasts (HGF), normal cells, 2 days exposure. The class given is cell-based.
Protocol: as §1
The nature of series [5]: MTT cytotoxicity assay, HPLF. It is filed as cell-based. The conditions noted are these: human, normal periodontal ligament fibroblasts (HPLF), normal cells, 2 days exposure.
Protocol: as §1
The nature of series [6]: MTT cytotoxicity assay, HPC. The conditions noted are these: human, normal pulp cells (HPC), 2 days exposure. It is filed as cell-based.
Protocol: For cytotoxicity testing, cells were then garnered using 0.25% trypsin–0.025% sodium edetate in a phosphate-buffered saline lacking Ca^2+/Mg^2+ [PBS (−)]. The cells were cultured in 96-well microplates at a cell count of 3 ×10^3 cells/100 μL. After 2 days, the exhausted medium was replaced with fresh medium containing the different concentrations of sample to be tested, in triplicate. The initial sample concentration was set at 5 mg/mL in DMSO. The first concentration examined was thus 500 μg/mL, which was then successively diluted 2-fold. In the wells assigned for control, equal volumes of the DMSO were added to the cells, where the toxic effects of DMSO could be subtracted. The cell growth in the incubator was continued for another 2 days. To determine the cell viability, the colorimetric MTT method was employed as described in our preceding article ([Orabi et al., 2021]). The concentration of cytotoxicity 50% (CC50) was determined from the dose-response curve. The mean CC50 value for each type of cell was calculated from triplicate assays ([Kantoh et al., 2010]). The changes in cell morphology were detected using light microscopy (EVOSfl; ThermoFisher Scientific, Waltham, MA, United States).
A short description of series [7]: MTT cytotoxicity assay, normal oral cells together (mean). It is filed as cell-based. The conditions noted are these: human; mean of HGF, HPLF, HPC; read-out: CC50 Mean (D), human normal oral cells.
Protocol: The cancer cell lines (HSC-2, HSC-3, HSC-4), as well as the normal cells (HGF, HPLF, and HPC), were cultured at 37°C in a humidified 5% CO2 incubator in DMEM medium enriched with streptomycin sulphate (100 μg/mL), 10% heat-inactivated FBS, and penicillin G (100 units/mL). For cytotoxicity testing, cells were then garnered using 0.25% trypsin–0.025% sodium edetate in a phosphate-buffered saline lacking Ca^2+/Mg^2+ [PBS (−)]. The cells were cultured in 96-well microplates at a cell count of 3 ×10^3 cells/100 μL. After 2 days, the exhausted medium was replaced with fresh medium containing the different concentrations of sample to be tested, in triplicate. The initial sample concentration was set at 5 mg/mL in DMSO. The first concentration examined was thus 500 μg/mL, which was then successively diluted 2-fold. In the wells assigned for control, equal volumes of the DMSO were added to the cells, where the toxic effects of DMSO could be subtracted. The cell growth in the incubator was continued for another 2 days. […] The concentration of cytotoxicity 50% (CC50) was determined from the dose-response curve.
In series [8] the test system is Ca9-22 (human gingival squamous carcinoma cell line). Briefly: MTT cytotoxicity assay, Ca9-22. The conditions noted are these: for CC50: Homo sapiens, Ca9-22, 48 h, read-out: CC50 Ca9-22 (A).
Protocol: (§2) The cancer cell lines (HSC-2, HSC-3, HSC-4), as well as the normal cells (HGF, HPLF, and HPC), were cultured at 37°C in a humidified 5% CO2 incubator in DMEM medium enriched with streptomycin sulphate (100 μg/mL), 10% heat-inactivated FBS, and penicillin G (100 units/mL). For cytotoxicity testing, cells were then garnered using 0.25% trypsin–0.025% sodium edetate in a phosphate-buffered saline lacking Ca^2+/Mg^2+ [PBS (−)]. The cells were cultured in 96-well microplates at a cell count of 3 ×10^3 cells/100 μL. After 2 days, the exhausted medium was replaced with fresh medium containing the different concentrations of sample to be tested, in triplicate. The initial sample concentration was set at 5 mg/mL in DMSO. The first concentration examined was thus 500 μg/mL, which was then successively diluted 2-fold. In the wells assigned for control, equal volumes of the DMSO were added to the cells, where the toxic effects of DMSO could be subtracted. The cell growth in the incubator was continued for another 2 days. […] The concentration of cytotoxicity 50% (CC50) was determined from the dose-response curve. […] The changes in cell morphology were detected using light microscopy (EVOSfl; ThermoFisher Scientific, Waltham, MA, United States).
(§3) The following equation was used to calculate tumor specificity (TS): TS = average CC50 toward the normal cells (HGF + HPLF + HPC)/average CC50 toward the tumor cell lines (Ca9-22 + HSC-2 + HSC-3 + HSC-4), as indicated by D/B (Table 1). To compare the sensitivity of the cancer cells (Ca9-22) with that of the normal cells (HGF), being generated from the same tissue, the equation TS = CC50 against HGF/CC50 against Ca9-22 was used (see C/A in Table 1).
The subject of series [9] is OSCC cell lines (Ca9-22 + HSC-2 + HSC-3 + HSC-4). In words: MTT cytotoxicity assay, OSCC cell lines together (mean, TS, PSE). The conditions noted are these: for CC50: Homo sapiens, read-out: CC50 Mean (B), human oral squamous cell carcinoma cell lines; for Type of growth inhibition (cytotoxic or cytostatic) from dose-response curve: OSCC cell lines and normal oral cells, Figure 1.
Protocol: as §2, §3

A further series has as its system Ca9-22 cells. In words: Cell cycle analysis (PI staining, cell sorter) and cell morphology. The conditions noted are these: Ca9-22, 20 h, 1 µM. It is filed as cell-based, human.

Broadly, the CC50 is the concentration that lowers cell viability or growth by half.

Each structure is given as a SMILES string. Like-named read-outs stand apart in the source and are kept apart here. *1 amine or outer side, *2 acyl side, *3 side chain or, on linkers, in order; H or OH if unused. Where a SMILES comes first, the peptide text is derived from it. Bridges are numbered along the chain shown (N, C = ends). Roman numbers before positions name the chains, in order. [ ]: non-standard residue; d: D form. Actinocin(9to1) = Cc1c2oc3c(C)ccc(C(=O)[*:1])c3nc-2c(C(=O)[*:2])c(N)c1=O; NMeV = CN[C@H](C(=O)O)C(C)C; Sar = CNCC(=O)O

Protocol for Ca9-22 cells: The changes in cell morphology were detected using light microscopy (EVOSfl; ThermoFisher Scientific, Waltham, MA, United States).
Ca9-22 cells (3 × 10^4/mL, 10 mL) were added to a 10-cm dish and allowed to fully attach to the dish over the course of 48 h of incubation. […] These cells were mixed and then washed once with PBS (−). Both cell groups were fixed for 1 h on ice with 1% paraformaldehyde. Fixed cells were then washed twice with PBS (−) and treated with 400 μL of 200 μg/mL RNase A (which was preheated for 10 min at 100°C to inactivate DNase) to degrade RNA. The cells were then washed twice with PBS (−) and stained for 15 min with 0.01% propidium iodide (PI) in the presence of 0.01% NP-40 in PBS (−) to prevent cell aggregation. After filtering through Falcon® cell strainers (nylon mesh, pore size: 40 μm) (Corning, NY, United States) to remove aggregated cells, PI-stained cells were then subjected to cell sorting using (SH800 Series; SONY Imaging Products and Solutions Inc., Kanagawa, Japan), and finally analyzed with the Cell Sorter Software version 2.1.2.

For `O=c1[nH]cc(F)c(=O)[nH]1` [5-FU, 5-fluorouracil], the CC50 in series [1] (MTT, 2 days exposure) is 292 µM; in series [2] (MTT, 2 days exposure), > 1000 µM; in series [3] (MTT, 2 days exposure), 182 µM; in series [8] it was 69.4 µM; in [9], > 386 µM. Further, the CC50 at 2 days in [4], in series [5], in series [6] and in [7] was > 1000 µM each time. Further, in [9], the “Type of growth inhibition (cytotoxic or cytostatic) from dose-response curve” value (“Type of growth inhibition” below) is recorded as “Cytostatic”.
For `Cc1c2oc3c(C)ccc(C(=O)N[C@@H]4C(=O)N[C@H](C(C)C)C(=O)N5CCC[C@H]5C(=O)N(C)CC(=O)N(C)[C@@H](C(C)C)C(=O)O[C@@H]4C)c3nc-2c(C(=O)N[C@@H]2C(=O)N[C@H](C(C)C)C(=O)N3CCC[C@H]3C(=O)N(C)CC(=O)N(C)[C@@H](C(C)C)C(=O)O[C@@H]2C)c(N)c1=O` [Act.D, actinomycin D] (I: T[dV]P[Sar][NMeV] / II: T[dV]P[Sar][NMeV]; ester I:1-I:C, II:1-II:C; linker I:N-II:N via Actinocin(9to1)), the “Morphological change of cells” value in the series on Ca9-22 cells is “cell shrinkage”.
Take `COc1cccc2c1C(=O)c1c(O)c3c(c(O)c1C2=O)C[C@@](O)(C(=O)CO)C[C@@H]3O[C@H]1C[C@H](N)[C@H](O)[C@H](C)O1` [Doxorubicin, doxorubicin]: the half-maximal cytotoxic concentration (CC50) in series [1] (MTT, 2 days exposure) is 0.09 µM; in series [2] (MTT, 2 days exposure) it was 0.16 µM; in series [3] (MTT, 2 days exposure), < 0.078 µM; in [8] it was 0.18 µM; in series [9], < 0.13 µM. Also, the CC50 at 2 days in [4], in [5], in series [6] and in [7] was > 10 µM throughout. In addition, the “Type of growth inhibition” value in series [9] was “Cytotoxic”.
Take `N[C@@H](Cc1ccc(N(CCCl)CCCl)cc1)C(=O)O` [Melphalan, melphalan]: the CC50 was 11 µM in series [1]; 14.1 µM in [2]; 9.9 µM in series [3]; 36.3 µM in series [8]; 17.8 µM in series [9]. Moreover, the CC50 at 2 days in series [4] was 180 µM; in series [5] it was > 200 µM; in [6], 159 µM; in [7] it was > 180 µM. In [8] (CC50 HGF / CC50 Ca9-22), the “TS (tumor selectivity) C/A” value turned out to be 5.0. Also, the “Type of growth inhibition” value in [9] is “Cytotoxic”.

The values are drawn from article PMC10830635, “In vitro cytotoxicity of Withania somnifera (L.) roots and fruits on oral squamous cell carcinoma cell lines: a study supported by flow cytometry, spectral, and computational investigations” (Frontiers in Pharmacology, 2024).
